Laboratory results: patent US12351570B2 (MERCK PATENT GMBH, priority 2018, dated 2025)

Test system: MDA-MB-231 cells
Experiment: Extracellular lactate production inhibition after 4 h, MDA-MB-231
Settings: Homo sapiens, MDA-MB-231
Procedure: Extracellular Lactate Production Inhibition after 4 h
Cells were plated in growth media supplemented with 10% FBS, followed by overnight recovery at 37° C., 5% CO2. […] Plates were then moved for 4 h incubation at 37° C., 5% CO2 with subsequent 20 μl media transfer to empty 384-well transparent plates. […] Plates were short-spun and measured kinetically in absorbance mode (530 nm, 12 min measurement time with 2-minute intervals between subsequent readouts at 30° C.). Differences in the signal between T8 min and T0min were normalized to vehicle (cells w/ 0.25% DMSO) and quasi-positive (LCIS buffer w/ 0.25% DMSO) controls and plotted against logarithmically-transformed test compound concentrations with fitting the 4-parameter model in GraphPad Prism software.

Work on `CC(C)Oc1ccc2cccnc2c1S(=O)(=O)Nc1ccccc1C#Cc1ccc(C(=O)O)nc1` [Compound 211, 5-(2-{2-[7-(propan-2-yloxy)quinoline-8-sulfonamido]phenyl}ethynyl)pyridine-2-carboxylic acid] yielded an IC50 of 10 to 100 nM.

For `O=C(O)c1ccc(C#Cc2ccccc2NS(=O)(=O)c2csc3ccccc23)cn1` [Compound 104, 5-{2-[2-(1-benzothiophene-3-sulfonamido)phenyl]ethynyl}pyridine-2-carboxylic acid], the IC50 was 100 to 1000 nM.

Compound `O=C(O)c1ccc(C#Cc2ccccc2NS(=O)(=O)c2cccc3c(Cl)c(Cl)cnc23)cn1` [Compound 298, 5-{2-[2-(3,4-dichloroquinoline-8-sulfonamido)phenyl]ethynyl}pyridine-2-carboxylic acid] has an IC50 of 10 to 100 nM.

In the case of `CNc1cc(C#Cc2ccccc2NS(=O)(=O)c2ccc(OC)c3cccnc23)ccc1C(=O)O` [Compound 232, 4-{2-[2-(5-methoxyquinoline-8-sulfonamido)phenyl]ethynyl}-2-(methylamino)benzoic acid], the IC50 is reported as 100 to 1000 nM.

`COc1ccc(S(=O)(=O)Nc2ccc(F)cc2C#Cc2ccc(C(=O)O)nc2)c2ncccc12` [Compound 185, 5-{2-[5-fluoro-2-(5-methoxyquinoline-8-sulfonamido)phenyl]ethynyl}pyridine-2-carboxylic acid] showed an IC50 of 10 to 100 nM.

Work on `Cc1ccc(C#Cc2ccc(C(=O)O)cc2)c(NS(=O)(=O)c2ccc3ccccc3c2)c1` [Compound 46, 4-{2-[4-methyl-2-(naphthalene-2-sulfonamido)phenyl]ethynyl}benzoic acid] yielded an IC50 of 100 to 1000 nM.

With `Cc1cccc(C#Cc2ccc(C(=O)O)cc2)c1NS(=O)(=O)c1ccc2ccccc2c1` [Compound 64, 4-{2-[3-methyl-2-(naphthalene-2-sulfonamido)phenyl]ethynyl}benzoic acid] the IC50 was 1000 to 100000 nM.

`COc1ncc(S(=O)(=O)Nc2ccccc2C#Cc2ccc(C(=O)O)cc2)cc1Br` [Compound 48, 4-{2-[2-(5-bromo-6-methoxypyridine-3-sulfonamido)phenyl]ethynyl}benzoic acid] showed an IC50 of 100 to 1000 nM.

`Cc1ccc2cccnc2c1S(=O)(=O)Nc1cc(F)c(Br)cc1C#Cc1ccc(C(=O)O)nc1` [Compound 341, 5-{2-[5-bromo-4-fluoro-2-(7-methylquinoline-8-sulfonamido)phenyl]-ethynyl}pyridine-2-carboxylic acid] showed an IC50 of 1 to 10 nM.

With `CCN(c1ccccc1C#Cc1ccc(C(=O)O)cc1)S(=O)(=O)c1ccc2ccccc2c1` [Compound 36, 4-{2-[2-(N-ethylnaphthalene-2-sulfonamido)phenyl]ethynyl}benzoic acid] the IC50 was 1000 to 100000 nM.

For `O=C(O)c1ccc(C#Cc2ccccc2NS(=O)(=O)c2ccc(OC(F)(F)F)c3cccnc23)cn1` [Compound 384, 5-[2-(5-Trifluoromethoxy-quinoline-8-sulfonylamino)-phenylethynyl]-pyridine-2-carboxylic acid], the IC50 was 10 to 100 nM.

In the case of `Cc1cc(C#Cc2ccccc2NS(=O)(=O)c2ccc(OC(F)(F)F)c3cccnc23)cnc1C(=O)O` [Compound 382, 3-Methyl-5-[2-(5-trifluoromethoxy-quinoline-8-sulfonylamino)-phenylethynyl]-pyridine-2-carboxylic acid], the IC50 is reported as 10 to 100 nM.

Compound `COC(=O)c1ccc(C#Cc2cc(F)ccc2NS(=O)(=O)c2c(C)ccc3cccnc23)cn1` [Compound 134, methyl 5-{2-[5-fluoro-2-(7-methylquinoline-8-sulfonamido)phenyl]ethynyl}pyridine-2-carboxylate] has an IC50 of 10 to 100 nM.

`COc1cc(C(=O)O)ncc1C#Cc1ccccc1NS(=O)(=O)c1cccc2c(N(C)C)ccnc12` [Compound 418, 5-[2-(4-Dimethylamino-quinoline-8-sulfonylamino)-phenylethynyl]-4-methoxy-pyridine-2-carboxylic acid] was tested, and the IC50 was 100 to 1000 nM.

Work on `COc1ccc(S(=O)(=O)Nc2ccc(Cl)cc2C#Cc2ccc(C(=O)O)nc2)cc1` [Compound 390, 5-[5-Chloro-2-(4-methoxy-benzenesulfonylamino)-phenylethynyl]-pyridine-2-carboxylic acid] yielded an IC50 of 100 to 1000 nM.

`CC(C)Oc1ccc(S(=O)(=O)Nc2ccccc2C#Cc2ccc(C(=O)O)nc2)c2ccccc12` [Compound 295, 5-(2-{2-[4-(propan-2-yloxy)naphthalene-1-sulfonamido]phenyl}ethynyl)pyridine-2-carboxylic acid] showed an IC50 of 10 to 100 nM.

For `CCOc1cc(C#Cc2ccccc2NS(=O)(=O)c2ccc(OC)c3ccccc23)ccc1C(=O)O` [Compound 58, 2-ethoxy-4-{2-[2-(4-methoxynaphthalene-1-sulfonamido)phenyl]ethynyl}benzoic acid], the IC50 was 100 to 1000 nM.

With `CC1CCN(S(=O)(=O)Nc2ccccc2C#Cc2ccc(C(=O)O)nc2)C2CCCCC12` (centres unmarked) [Compound 228, 5-[2-(2-{[(4-methyl-decahydroquinolin-1-yl)sulfonyl]amino}phenyl)ethynyl]pyridine-2-carboxylic acid] the IC50 was 10 to 100 nM.

`O=CN(Cc1cccc(-c2ccccc2)c1)c1ccccc1C#Cc1ccc(C(=O)O)nc1` [Compound 181, 5-(2-{2-[N-({[1,1′-biphenyl]-3-yl}methyl)formamido]phenyl}-ethynyl)pyridine-2-carboxylic acid] was tested, and the IC50 was 100 to 1000 nM.

Work on `Cc1cncc2c(S(=O)(=O)Nc3ccccc3C#Cc3ccc(C(=O)O)cc3)cccc12` [Compound 54, 4-{2-[2-(4-methylisoquinoline-8-sulfonamido)phenyl]ethynyl}benzoic acid] yielded an IC50 of 1000 to 100000 nM.

`COc1ccccc1S(C)(=O)=Nc1ccccc1C#Cc1ccc(C(=O)O)nc1` (centres unmarked) [Compound 433, 5-[2-(2-{[(2-methoxyphenyl)(methyl)oxo-λ6-sulfanylidene]amino}phenyl)ethynyl] pyridine-2-carboxylic acid] gave an IC50 of 1000 to 100000 nM.

For `COc1cc(C(=O)O)ncc1C#Cc1ccccc1N(C=O)Cc1ccc(-c2ccccc2)cc1` [Compound 192, 5-(2-{2-[N-({[1,1′-biphenyl]-4-yl}methyl)formamido]phenyl}ethynyl)-4-methoxypyridine-2-carboxylic acid], the IC50 was 1 to 10 nM.

For `O=C(O)c1ccc(C#Cc2ccccc2NS(=O)(=O)c2ccc3c(c2)oc2ccccc23)cn1` [Compound 301, 5-[2-(2-{8-oxatricyclo[7.4.0.0^2,7]trideca-1(9),2(7),3,5,10,12-hexaene-5-sulfonamido}phenyl)ethynyl]pyridine-2-carboxylic acid], the IC50 was 100 to 1000 nM.

With `COc1ccc(S(=O)(=O)Nc2ccc(Cl)cc2C#Cc2cnc(C(=O)O)c3ccccc23)c(C)c1C` [Compound 400, 4-[5-Chloro-2-(4-methoxy-2,3-dimethyl-benzenesulfonylamino)-phenylethynyl]-isoquinoline-1-carboxylic acid] the IC50 was 10 to 100 nM.

In the case of `COc1ccc(S(=O)(=O)Nc2ccccc2C#Cc2ccc(C(=O)O)nc2)c2ccccc12` [Compound 31, 5-{2-[2-(4-methoxynaphthalene-1-sulfonamido)phenyl]ethynyl}pyridine-2-carboxylic acid], the IC50 is reported as 100 to 1000 nM.

For `CN(c1ccccc1C#Cc1ccc(C(=O)O)cc1)S(=O)(=O)c1ccc2ccccc2c1` [Compound 4, 4-{2-[2-(N-methylnaphthalene-2-sulfonamido)phenyl]ethynyl}benzoic acid], the IC50 was 100 to 1000 nM.

`COc1ccc(S(=O)(=O)Nc2ccc(Br)cc2C#Cc2ccc(C(=O)N(C)C)nc2)c2ncccc12` [Compound 238, 5-{2-[5-bromo-2-(5-methoxyquinoline-8-sulfonamido)phenyl]ethynyl}-N,N-dimethylpyridine-2-carboxamide] gave an IC50 of 1000 to 100000 nM.

With `Cc1ccc2cccnc2c1S(=O)(=O)Nc1ccccc1C#Cc1cnc(C(=O)O)cc1O` [Compound 193, 4-hydroxy-5-{2-[2-(7-methylquinoline-8-sulfonamido)phenyl]ethynyl}pyridine-2-carboxylic acid] the IC50 was 1000 to 100000 nM.

`COc1ccc(C#Cc2ccc(C(=O)O)nc2)c(NS(=O)(=O)c2c(C)ccc3cccnc23)c1` [Compound 218, 5-{2-[4-methoxy-2-(7-methylquinoline-8-sulfonamido)phenyl]ethynyl}pyridine-2-carboxylic acid] gave an IC50 of 100 to 1000 nM.

Compound `CS(=O)(=Nc1ccccc1C#Cc1ccc(C(=O)O)nc1)c1ccc(F)cc1` (centres unmarked) [Compound 431, 5-[2-(2-{[(4-fluorophenyl)(methyl)oxo-λ6-sulfanylidene]amino}phenyl)ethynyl] pyridine-2-carboxylic acid] has an IC50 of 1000 to 100000 nM.

In the case of `COC(=O)c1ncc(C#Cc2cc(F)ccc2NS(=O)(=O)c2cccc(OC)c2)cc1C` [Compound 321, methyl 5-{2-[5-fluoro-2-(3-methoxy-benzenesulfonamido)phenyl]ethynyl}-3-methylpyridine-2-carboxylate], the IC50 is reported as 1000 to 100000 nM.

For `O=C(O)c1ccc(C#Cc2ccccc2NS(=O)(=O)c2ccc(-n3cccn3)cc2)cn1` [Compound 142, 5-(2-{2-[4-(1H-pyrazol-1-yl)benzenesulfonamido]phenyl}-ethynyl)pyridine-2-carboxylic acid], the IC50 was 100 to 1000 nM.

For `Cc1ccc2cccnc2c1S(=O)(=O)Nc1ccccc1C#Cc1cnc2c(c1)COC2=O` [Compound 401, 7-methyl-N-[2-(2-{7-oxo-5H,7H-furo[3,4-b]pyridin-3-yl}ethynyl)phenyl]quinoline-8-sulfonamide], the IC50 was 10 to 100 nM.

Compound `Cc1nc(C(=O)O)ccc1C#Cc1ccccc1NS(=O)(=O)c1ccc2ccccc2c1` [Compound 51, 6-methyl-5-{2-[2-(naphthalene-2-sulfonamido)phenyl]ethynyl}pyridine-2-carboxylic acid] has an IC50 of 1000 to 100000 nM.

`Cn1ccc2c(S(=O)(=O)Nc3ccccc3C#Cc3ccc(C(=O)O)nc3)cccc21` [Compound 303, 5-{2-[2-(1-methyl-1H-indole-4-sulfonamido)phenyl]ethynyl}pyridine-2-carboxylic acid] was tested, and the IC50 was 100 to 1000 nM.

Work on `COc1cc(C#Cc2ccccc2NS(=O)(=O)c2c(C)ccc3cccnc23)c(C)cc1C(=O)O` [Compound 365, 2-methoxy-5-methyl-4-{2-[2-(7-methylquinoline-8-sulfonamido)-phenyl]ethynyl}benzoic acid] yielded an IC50 of 100 to 1000 nM.

For `O=C(O)c1ccc(C#Cc2cccc(F)c2NS(=O)(=O)c2ccc3ccccc3c2)cc1` [Compound 32, 4-{2-[3-fluoro-2-(naphthalene-2-sulfonamido)phenyl]ethynyl}benzoic acid], the IC50 was 100 to 1000 nM.

`COc1cccc(-c2cccc(S(=O)(=O)Nc3ccccc3C#Cc3ccc(C(=O)O)nc3)c2)n1` [Compound 127, 5-(2-{2-[3-(6-methoxypyridin-2-yl)benzenesulfonamido]phenyl}-ethynyl)pyridine-2-carboxylic acid] showed an IC50 of 100 to 1000 nM.
